US11136347B2, “Crystalline forms of a fatty acid bile acid conjugate, preparation method thereof and use thereof” (Crystal Pharmaceutical (Suzhou) Co., Ltd., priority 2017, dated 2021)

Columns and labels:
Assay type in all cases: physicochemical
[1] = Hygroscopicity study by dynamic vapor sorption (DVS); conditions: for Weight gain under 80% Relative Humidity: DVS; for Weight gain under 80% Relative Humidity / The definition of hygroscopicity: 80% RH; for The definition of hygroscopicity: Chinese Pharmacopoeia 2015 edition, 25° C. +/−1° C.
Method: Dynamic vapor sorption (DVS) was applied to test hygroscopicity of Form CS3 and the solid disclosed in CN100386339C with about 15 mg of samples. […] DVS plot of test hygroscopicity of Form CS3 is depicted in FIG. 1G. What's more, the crystalline form of Form CS3 didn't change after DVS test, which is depicted in FIG. 1H.
(§1) Dynamic vapor sorption (DVS) was applied to test hygroscopicity of Form CS2 with about 10 mg of samples. […] As depicted in FIG. 1I, weight gain of the solid disclosed in prior art under 80% RH is 2.44%. The hygroscopicity of Form CS2 is lower than that of prior art.
Dynamic vapor sorption (DVS) was applied to test hygroscopicity of Form CS5 with about 8 mg of samples. […] As depicted in FIG. 1I, weight gain of the solid disclosed in prior art under 80% RH is 2.44%. The hygroscopicity of Form CS5 is lower than that of prior art.
as §1, with “CS8” for “CS2”, “7” for “10”, “sample.” for “samples.”, “art. […] The XRPD patterns before and after DVS were shown in FIG. 4F, top: the XRPD pattern before DVS; bottom: XRPD pattern after DVS.” for “art.”

[2] = Stability study: storage in open dishes, crystalline form checked by XRPD; conditions: for Form change: XRPD
Method: Solid samples of Form CS3 were stored under different conditions of 25° C./60% RH and 40° C./75% RH in open dishes for one year. Crystalline form was checked by XRPD.
Form CS8 were stored in open dishes under 25° C./60% RH, 40° C./75% RH and 60° C./75% RH conditions for three weeks, and sampled for XRPD test.

[3] = Particle size distribution (Microtrac S3500 laser particle size analyzer, wet mode); conditions: after ultrasonication for 30 seconds, dispersion medium Isopar G
Method: The particle size distribution data in the present disclosure were acquired by an S3500 laser particle size analyzer of Microtrac. Microtrac S3500 is equipped with an SDC (Sample Delivery Controller). The test was carried out in wet mode, and the dispersion medium is Isopar G. The parameters are as follows:
(§2) The particle size distribution of Form CS3 and the solid disclosed in CN100386339C were tested after ultrasonication for 30 seconds. The average particle size of Form CS3 is 26.3 μm, and D90 is 62.8 μm. The average particle size and D90 of the solid disclosed in prior art are 452.5 μm and 870.3 μm. Compared with prior art, Form CS3 has smaller particle size, which increases the specific surface area of the drug substance, improves the dissolution rate of drug, thereby facilitating drug absorption and further improving the bioavailability of the drug.
as §2, with “Form CS2” for “Form CS3”, “seconds. An” for “seconds. The”, “is 41.9” for “is 26.3”, “is 87.5 μm, while the” for “is 62.8 μm. The”

[4] = listed as solid disclosed in prior art

CCCCCCCCCCCCCCCCCCCC(=O)N[C@H]1CC[C@@]2(C)[C@@H](C1)C[C@@H](O)[C@@H]1[C@@H]2C[C@H](O)[C@]2(C)[C@@H]([C@H](C)CCC(=O)O)CC[C@@H]12 [Form CS3, 3β-arachidylamido-7α,12α-dihydroxy-5β-cholan-24-oic acid]
Weight gain under 80% Relative Humidity [1]: 0.15% | Form change before and after DVS test (XRPD) [1]: didn't change | Time for which the crystalline form doesn't change (stable) ([2]; 25° C./60% RH): at least 3 weeks | Form change ([2]; 25° C./60% RH, one year): No form change | Time for which the crystalline form doesn't change (stable) ([2]; 40° C./75% RH): at least 3 weeks | Form change ([2]; 40° C./75% RH, one year): No form change | Time for which the crystalline form doesn't change (stable) ([2]; 60° C./75% RH): at least 3 weeks | D10 [3]: 2.0 μm | D50 [3]: 12.3 μm | D90 [3]: 62.8 μm | MV (average particle diameter calculated by volume) [3]: 26.3 μm

CCCCCCCCCCCCCCCCCCCC(=O)N[C@H]1CC[C@@]2(C)[C@@H](C1)C[C@@H](O)[C@@H]1[C@@H]2C[C@H](O)[C@]2(C)[C@@H]([C@H](C)CCC(=O)O)CC[C@@H]12 [Solid disclosed in CN100386339C, 3β-arachidylamido-7α,12α-dihydroxy-5β-cholan-24-oic acid, reference compound]
The definition of hygroscopicity [1, 4]: hygroscopic (Increase in mass is less than 15 percent and equal to or greater than 2 percent) | Weight gain under 80% Relative Humidity [1]: 2.44% | Weight gain under 80% Relative Humidity ([1]; listed as amorphous solid): 2.44% | Weight gain under 80% Relative Humidity [1, 4]: 2.44% | Weight gain under 80% Relative Humidity ([1]; listed as solid of prior art): 2.44% | D10 [3]: 95.0 μm | D50 [3]: 398.8 μm | D90 [3]: 870.3 μm | MV (average particle diameter calculated by volume) [3]: 452.5 μm | D90 ([3]; listed as prior art): 870.3 μm | MV (average particle diameter calculated by volume) ([3]; listed as prior art): 452.5 μm | D90 [3, 4]: 870.3 μm | MV (average particle diameter calculated by volume) [3, 4]: 452.5 μm

CCCCCCCCCCCCCCCCCCCC(=O)N[C@H]1CC[C@@]2(C)[C@@H](C1)C[C@@H](O)[C@@H]1[C@@H]2C[C@H](O)[C@]2(C)[C@@H]([C@H](C)CCC(=O)O)CC[C@@H]12 [Form CS2, 3β-arachidylamido-7α,12α-dihydroxy-5β-cholan-24-oic acid]
The definition of hygroscopicity [1]: slightly hygroscopic (Increase in mass is less than 2 percent and equal to or greater than 0.2 percent) | Weight gain under 80% Relative Humidity [1]: 0.46% | Form change before and after DVS test (XRPD) [1]: No form change | Time for which the crystalline form doesn't change (stable) ([2]; 25° C./60% RH): at least 3 weeks | Time for which the crystalline form doesn't change (stable) ([2]; 40° C./75% RH): at least 3 weeks | Time for which the crystalline form doesn't change (stable) ([2]; 60° C./75% RH): at least 3 weeks | D10 [3]: 9.7 μm | D50 [3]: 27.9 μm | D90 [3]: 87.5 μm | MV (average particle diameter calculated by volume) [3]: 41.9 μm

CCCCCCCCCCCCCCCCCCCC(=O)N[C@H]1CC[C@@]2(C)[C@@H](C1)C[C@@H](O)[C@@H]1[C@@H]2C[C@H](O)[C@]2(C)[C@@H]([C@H](C)CCC(=O)O)CC[C@@H]12 [Form CS5, 3β-arachidylamido-7α,12α-dihydroxy-5β-cholan-24-oic acid]
The definition of hygroscopicity [1]: slightly hygroscopic (Increase in mass is less than 2 percent and equal to or greater than 0.2 percent) | Weight gain under 80% Relative Humidity [1]: 0.35% | Form change before and after DVS test (XRPD) [1]: No form change | Time for which the crystalline form doesn't change (stable) ([2]; 25° C./60% RH): at least 3 weeks | Time for which the crystalline form doesn't change (stable) ([2]; 40° C./75% RH): at least 3 weeks | Time for which the crystalline form doesn't change (stable) ([2]; 60° C./75% RH): at least 3 weeks | MV (average particle diameter calculated by volume) [3]: 75.6 μm

CCCCCCCCCCCCCCCCCCCC(=O)N[C@H]1CC[C@@]2(C)[C@@H](C1)C[C@@H](O)[C@@H]1[C@@H]2C[C@H](O)[C@]2(C)[C@@H]([C@H](C)CCC(=O)O)CC[C@@H]12 [Form CS8, 3β-arachidylamido-7α,12α-dihydroxy-5β-cholan-24-oic acid]
Weight gain under 80% Relative Humidity [1]: 0.40% | Form change before and after DVS test (XRPD) [1]: No form change | Form change ([2]; 25° C./60% RH, three weeks): no form change | Form change ([2]; 40° C./75% RH, three weeks): no form change | Form change ([2]; 60° C./75% RH, three weeks): no form change
